This is an account of results in US20250144067A1, “PERSONALIZED STARVATION THERAPY FOR CANCER” (Faeth Therapeutics, Inc., priority 2021, published 2025).

Test [1] has as its system NCI-H292 lung cancer cells. Put plainly: FDA drug screening, complete media vs cholesterol-free media without statin (TABLE 1). Format: cell-based, human.
Test [2] concerns NCI-H292 lung cancer cells. Put plainly: FDA drug screening, complete media vs cholesterol-free media with simvastatin (TABLE 2). The format is cell-based, human.
The mark [3] stands for this setting: Complete minus Cholesterol-free, […].
The mark [4] stands for this setting: NCI-H292 cells, FDA drug library screen, cholesterol-free media without statin.
Where [5] appears, read: NCI-H292 cells, FDA drug library screen, complete media.
The mark [6] stands for this setting: NCI-H292 cells, FDA library drug in cholesterol-free media with simvastatin 0.04 μM.
Setting [7] is: NCI-H292 cells, FDA library drug in complete media.
The mark [8] stands for this setting: complete media vs cholesterol-free media + simvastatin (0.04 μM), […].
The mark [9] stands for this setting: Complete minus Cholesterol-free, >0 enhanced anti-cancer activity, about 0 neutral, <0 antagonist.
The mark [10] stands for this setting: NCI-H292 cells, cholesterol-free media without statin, FDA drug library screen.
Setting [11] is: NCI-H292 cells, complete media, FDA drug library screen.
[12] abbreviates: complete media vs cholesterol-free media + simvastatin (0.04 μM), >0 enhanced anti-cancer activity, about 0 neutral, <0 antagonist.
The mark [13] stands for this setting: Complete minus Cholesterol-free, greater than 0 enhanced anti-cancer activity, about 0 neutral, below 0 antagonist.
Setting [14] is: NCI-H292 cells, cholesterol-free media with simvastatin 0.04 μM, cell growth value in FDA drug screen.
The mark [15] stands for this setting: NCI-H292 cells, complete media, cell growth value in FDA drug screen.
The mark [16] stands for this setting: complete media minus cholesterol-free media + simvastatin, >0 enhanced anti-cancer activity, about 0 neutral, <0 antagonist.
The mark [17] stands for this setting: NCI-H292 cells, cholesterol-free media without statin.
The mark [18] stands for this setting: NCI-H292 cells, drug in cholesterol-free media with simvastatin 0.04 μM.
Setting [19] is: NCI-H292 cells, drug in complete media.
The mark [20] stands for this setting: complete vs cholesterol-free media, greater than 0 enhanced anti-cancer activity, about 0 neutral, below 0 antagonists.
Where [21] appears, read: NCI-H292 cells, FDA drug library screen, cholesterol-free media with simvastatin 0.04 μM.
Where [22] appears, read: Complete minus Cholesterol-free, greater than 0 enhanced anti-cancer activity, about 0 neutral, below 0 antagonists.
The mark [23] stands for this setting: NCI-H292 cells in cholesterol-free media without statin.
Where [24] appears, read: NCI-H292 cells in complete media.

Structures can show the parent of a compound that is named as a salt. Where two headings read alike, the source gives them in different places.

Take `C/C1=C2/[N-][C@H]([C@H](CC(N)=O)[C@@]2(C)CCC(=O)NC[C@@H](C)OP(=O)([O-])O[C@H]2[C@@H](O)[C@@H](n3cnc4cc(C)c(C)cc43)O[C@@H]2CO)[C@]2(C)N=C(/C(C)=C3N=C(/C=C4N=C1[C@@H](CCC(N)=O)C\4(C)C)[C@@H](CCC(N)=O)[C@]\3(C)CC(N)=O)[C@@H](CCC(N)=O)[C@]2(C)CC(N)=O.[CH3-].[Co+3]` [Methylcobalamin]: the results for the Difference in test [1] (setting [3]) and in test [2] (setting [8]) were −0.18 and −0.89, respectively. This compound came in with a Cholesterol-free in test [1] (setting [4]) of 1.021. This compound also showed a Complete in test [1] (setting [5]) of 0.8435. In test [2] (setting [6]), the “Cholesterol-free media + simvastatin (0.04 μM)” value was 1.749. In addition, in test [2] (setting [7]), the “Complete Media” value stood at 0.8589.

With `O=P(O)(O)C(Cl)(Cl)P(=O)(O)O` [Clodronic acid (disodium salt)], the Difference in test [1] (setting [9]) is given as 0.00; in test [2] (setting [12]), −0.81. For the same compound, the Cholesterol-free in test [1] (setting [10]) came out at 0.9505. This compound also displayed a Complete in test [1] (setting [11]) of 0.955. Besides, the “Cholesterol-free media + simvastatin (0.04 μM)” value in test [2] (setting [6]) is on record as 1.883. The “Complete Media” value in test [2] (setting [7]) worked out at 1.075.

In the case of `Cc1cccc(C)c1NC(=O)C1CCCCN1C` (centres unmarked) [Mepivacaine], the Difference is on record as −0.09 in test [1] (setting [13]) and −0.57 in test [2] (setting [12]). Moreover, in test [1] (setting [4]), the Cholesterol-free is 1.247. In addition, the Complete in test [1] (setting [5]) is given as 1.156. For the same compound, the “Cholesterol-free media + simvastatin (0.04 μM)” value in test [2] (setting [6]) was determined as 1.558. In test [2] (setting [7]), the “Complete Media” value is 0.984.

With `N#Cc1ccnc(N2C(=O)CC[C@H]2C(=O)N(c2cncc(F)c2)[C@H](C(=O)NC2CC(F)(F)C2)c2ccccc2Cl)c1` [Ivosidenib], the Difference in test [1] (setting [13]) is reported as −0.17; in test [2] (setting [16]) it was 0.05. For the same compound, the Cholesterol-free in test [1] (setting [4]) is given as 0.9061. For the same compound, the Complete in test [1] (setting [5]) was found to be 0.7326. For the same compound, in test [2] (setting [14]), the “Cholesterol-free media + simvastatin (0.04 μM)” value amounted to 0.8742. The “Complete Media” value in test [2] (setting [15]) was found to be 0.9265.

As to `CN(CCN1CCC(OC(=O)Nc2ccccc2-c2ccccc2)CC1)C(=O)c1ccc(CN2CCC(C(N)=O)CC2)cc1` [Revefenacin], in test [1], the Complete was 0.9642 and the Difference was −0.65. Further, in test [2], the “Cholesterol-free media + simvastatin (0.04 μM)” value was 1.184, the “Complete Media” value was 1.038 and the Difference was −0.15.

`CC(=O)O[C@H]1Cc2ccccc2N(C(N)=O)c2ccccc21` [Eslicarbazepine acetate]: the Difference is −0.21 in test [1] (setting [9]) and 0.07 in test [2] (setting [16]). The compound further showed a Cholesterol-free in test [1] (setting [17]) of 0.9987. In addition, in test [1] (NCI-H292 cells, complete media), the Complete is on record as 0.7874. Further, the “Cholesterol-free media + simvastatin (0.04 μM)” value in test [2] (setting [14]) was 1.032. In addition, the “Complete Media” value in test [2] (setting [15]) is reported as 1.104.

With `CCCC(=O)O[C@]1(C(=O)COC(=O)CC)CC[C@H]2[C@@H]3CCC4=CC(=O)CC[C@]4(C)[C@H]3[C@@H](O)C[C@@]21C` [Hydrocortisone buteprate], the Difference in test [1] (setting [13]) is given as −0.17; in test [2] (setting [16]), 0.04. For the same compound, the Cholesterol-free in test [1] (setting [4]) is on record as 0.8122. The same compound registered a Complete in test [1] (setting [5]) of 0.6382. Also, in test [2] (setting [14]), the “Cholesterol-free media + simvastatin (0.04 μM)” value is listed as 0.6107. In test [2] (setting [15]), the “Complete Media” value was 0.6538.

As to Lanreotide (acetate), the Difference in test [1] (setting [3]) is recorded as −0.24; in test [2] (setting [8]), −0.17. This compound also gave a Cholesterol-free in test [1] (setting [17]) of 1.287. This compound also registered a Complete in test [1] (NCI-H292 cells, complete media) of 1.045. Further, the “Cholesterol-free media + simvastatin (0.04 μM)” value in test [2] (setting [18]) is listed as 1.388. Besides, the “Complete Media” value in test [2] (setting [19]) was 1.218.

In the case of `N#Cc1ccc(C2CCCc3cncn32)cc1` (centres unmarked) [Fadrozole hydrochloride], in test [1], the Cholesterol-free was 1.643, the Complete amounted to 1.101 and the Difference is −0.54. In test [2], the “Cholesterol-free media + simvastatin (0.04 μM)” value was 0.9854, the “Complete Media” value amounted to 0.9477 and the Difference is recorded as −0.04.

In test [1] (setting [17]), `CN(C)[C@@H](CCOc1cccc2ccccc12)c1ccccc1` [Dapoxetine (hydrochloride)] returned a Cholesterol-free of 1.092. In test [1] (NCI-H292 cells, complete media), this compound returned a Complete of 0.7794. The Difference in test [1] (setting [20]) is given as −0.31; in test [2] (complete media minus cholesterol-free media + simvastatin (0.04 μM), >0 enhanced anti-cancer activity, about 0 neutral, <0 antagonist), −0.05. Besides, the “Cholesterol-free media + simvastatin (0.04 μM)” value in test [2] (NCI-H292 cells, cholesterol-free media with simvastatin 0.04 μM, FDA drug library screen (TABLE 2)) worked out at 1.079. Also, the “Complete Media” value in test [2] (NCI-H292 cells, complete media, FDA drug library screen (TABLE 2)) turned out to be 1.031.

As to `CCN(CC)C(=S)SSC(=S)N(CC)CC` [Disulfiram], the results for the Difference in test [1] (setting [9]) and in test [2] (setting [12]) were −0.02 and −0.08, respectively. In addition, the Cholesterol-free in test [1] (setting [10]) was 0.0139. The Complete in test [1] (setting [11]) is reported as −0.001922. In addition, in test [2] (setting [21]), the “Cholesterol-free media + simvastatin (0.04 μM)” value is on record as 0.005061. In addition, the “Complete Media” value in test [2] (setting [5]) is −0.0784.

For `C[C@H](Cc1cc2c(c(C(N)=O)c1)N(CCCO)CC2)NCCOc1ccccc1OCC(F)(F)F` [Silodosin], the Cholesterol-free in test [1] (setting [17]) is 1.295. This compound yielded a Complete in test [1] (NCI-H292 cells, complete media) of 0.8816. Moreover, the Difference in test [1] (setting [20]) is −0.41; in test [2] (setting [12]), −0.14. In addition, in test [2] (setting [21]), the “Cholesterol-free media + simvastatin (0.04 μM)” value worked out at 1.21. For the same compound, the “Complete Media” value in test [2] (setting [5]) is 1.074.

`O=S(=O)(O)c1cc(O)ccc1O` [Ethamsylate]: the Difference in test [1] (setting [22]) is reported as −0.53; in test [2] (setting [12]), −0.15. For the same compound, the Cholesterol-free in test [1] (setting [23]) was 1.652. The compound also came in with a Complete in test [1] (setting [24]) of 1.118. Besides, the “Cholesterol-free media + simvastatin (0.04 μM)” value in test [2] (setting [21]) stood at 1.397. The “Complete Media” value in test [2] (setting [5]) turned out to be 1.245.

Consider `CN1CCC(=C2c3ccccc3C=Cc3ccccc32)CC1` [Cyproheptadine (hydrochloride sesquihydrate)], for which, in test [1] (setting [10]), the Cholesterol-free is reported as 0.8413. The compound further displayed a Complete in test [1] (setting [11]) of 1.399. The Difference in test [1] (complete vs cholesterol-free media, >0 enhanced anti-cancer activity, about 0 neutral, <0 antagonist) turned out to be 0.56; in test [2] (setting [16]), 0.11. In addition, the “Cholesterol-free media + simvastatin (0.04 μM)” value in test [2] (setting [14]) is given as 1.087. Besides, the “Complete Media” value in test [2] (setting [15]) is on record as 1.192.

Take `Nc1ccc(S(=O)(=O)Nc2ncccn2)cc1` [Sulfadiazine]: the Cholesterol-free in test [1] (setting [17]) is 1.21. This compound had a Complete in test [1] (NCI-H292 cells, complete media) of 0.7631. Further, the Difference in test [1] (setting [20]) is recorded as −0.45; in test [2] (setting [16]), 0.06. In test [2] (setting [14]), the “Cholesterol-free media + simvastatin (0.04 μM)” value is listed as 1.499. In addition, in test [2] (setting [15]), the “Complete Media” value was determined as 1.555.

In test [1], `CO[C@H]1C[C@H](O[C@@H]2/C(C)=C/C[C@@H]3C[C@@H](C[C@]4(CC[C@H](C)[C@@H](C5CCCCC5)O4)O3)OC(=O)[C@@H]3C=C(C)/C(=N/O)[C@H]4OC/C(=C\C=C\[C@@H]2C)[C@]43O)O[C@@H](C)[C@@H]1O` [Selamectin] registered a Cholesterol-free of −0.000828, a Complete of −0.0121 and a Difference of −0.01. In test [2], the “Cholesterol-free media + simvastatin (0.04 μM)” value was 0.0107, the “Complete Media” value worked out at 0.03346 and the Difference stood at 0.02.

For `CC(=O)N[C@H]1[C@H]([C@H](O)[C@H](O)CO)OC(C(=O)O)=C[C@@H]1N=C(N)N` [Zanamivir], the Difference in test [1] (setting [22]) is recorded as −0.85; in test [2] (setting [12]) it was −0.19. The same compound yielded a Cholesterol-free in test [1] (setting [23]) of 1.947. This compound gave a Complete in test [1] (setting [24]) of 1.097. In test [2] (setting [18]), the “Cholesterol-free media + simvastatin (0.04 μM)” value worked out at 1.295. Besides, the “Complete Media” value in test [2] (setting [19]) was 1.107.

`C[C@]12CC[C@@H]3c4ccc(OC(=O)c5ccccc5)cc4CC[C@H]3[C@@H]1CC[C@@H]2O` [Estradiol benzoate] had a Cholesterol-free in test [1] (setting [17]) of 1.285. In test [1] (NCI-H292 cells, complete media), this compound came in with a Complete of 0.9221. The figures for the Difference in test [1] (setting [20]) and in test [2] (setting [12]) were −0.36 and −0.25, respectively. For the same compound, in test [2] (setting [18]), the “Cholesterol-free media + simvastatin (0.04 μM)” value is 1.387. In addition, the “Complete Media” value in test [2] (setting [19]) is 1.134.
